Holding throughout (assay): In vitro enzymatic assay (Nitrocefin)
What all share (assay type): biochemical

Test [1] concerns the target AmpC-EC (Class C) β-lactamase (UniProt P05364). To be noted: Nitrocefin 0.1 mM, 1 × PBS pH 7.4, 0.1 mg/mL BSA, read-out: IC50, inhibitory activity on β-lactamase. As for the experimental part: (§1) 2) Prepare buffer solution A (1×PBS, pH 7.4, 0.1 mg/mL BSA) for enzymatic assay;
(§2) 3) The compound mother liquor was 4-fold serial diluted for 11 times with DMSO in a 96-well tip-bottom plate, which was used as a working solution. A 96-well flat bottom plate was used as a test plate, the corresponding reaction buffer was previously added to each well, followed by addition of a corresponding volume of the working solution (100 μM-0.095 nM and 0 nM). Wherein, EDTA-Na2 was used as a control for the NDM-1 test at a concentration of 20 mM;
(§3) 4) adding the corresponding β-lactamase, and the test plate was incubated at 37° C. for 5 minutes;
(§4) 5) Adding 5 μL Nitrocefin (the final reaction volume was 100 μL), the absorbance OD490 of the reaction solution in the plate was measured by a microplate reader and the result was recorded, the absorbance was measured every minute over 30 minutes;
(§5) 6) The microplate reader could give a curve of OD490 over time. The slope of the curve (Abs2−Abs1)/(T2−T1) was calculated by taking two data points Abs1 and Abs2 within the linear range of the curve.
(§6) 7) The relative inhibition rate was calculated as follows: Slope (EC) was calculated under the condition of absence of an inhibitor, and Slop(S) was calculated under the condition of an inhibitor at a certain concentration.
(§7) The relative inhibition rate and the corresponding concentration of the inhibitor were used to calculate the IC50 value of the inhibitor on β-lactamase. In this experiment, the IC50 was calculated using the formula of GraphPad Prism 5.0, log(inhibitor) vs. normalized response-Variable slope.

Test [2] deals with AmpC-PA (Class C) β-lactamase (Pseudomonas aeruginosa, UniProt P24735). Here is the method: as §1, §2, §3, §4, §5, §6, §7
Test [3] addresses CTX-M-44 (Class C) β-lactamase (Escherichia coli, UniProt Q47066). As for the experimental part: as §1, §2, §3, §4, §5, §6, §7
Test [4] has as its target KPC (Class A) β-lactamase (Klebsiella pneumoniae, UniProt Q9F663). As for the experimental part:
as §1, §2, §3, §4, §5, §6, §7

Test [5] deals with OXA-2 (Class D) β-lactamase (Escherichia coli, UniProt P0A1V9). Here is the method:
as §1, §2, §3, §4, §5, §6, §7

Test [6] has as its target OXA-9 (Class D) β-lactamase (Klebsiella pneumoniae, UniProt P0A3M3). Here is the method:
as §1, §2, §3, §4, §5, §6, §7

Test [7] has as its target TEM-1 (Class A) β-lactamase (Escherichia coli, UniProt P62593). To be noted: Nitrocefin 0.1 mM, 1 × PBS pH 7.4, 0.1 mg/mL BSA, read-out: IC50, inhibitory activity on β-lactamase. Here is the method: as §1, §2, §3, §4, §5, §6, §7

The structures appear in SMILES notation.

CTX-M-44 (Class C) β-lactamase, sequence (Q47066 30-291): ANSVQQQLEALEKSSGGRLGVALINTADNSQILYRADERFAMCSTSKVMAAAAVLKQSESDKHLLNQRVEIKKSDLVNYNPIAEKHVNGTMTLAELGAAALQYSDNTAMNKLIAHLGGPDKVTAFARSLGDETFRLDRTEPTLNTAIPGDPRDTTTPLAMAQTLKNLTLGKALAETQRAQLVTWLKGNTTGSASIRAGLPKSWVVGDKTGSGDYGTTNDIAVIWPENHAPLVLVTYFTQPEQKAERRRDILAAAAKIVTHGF
OXA-2 (Class D) β-lactamase, sequence (P0A1V9 22-275): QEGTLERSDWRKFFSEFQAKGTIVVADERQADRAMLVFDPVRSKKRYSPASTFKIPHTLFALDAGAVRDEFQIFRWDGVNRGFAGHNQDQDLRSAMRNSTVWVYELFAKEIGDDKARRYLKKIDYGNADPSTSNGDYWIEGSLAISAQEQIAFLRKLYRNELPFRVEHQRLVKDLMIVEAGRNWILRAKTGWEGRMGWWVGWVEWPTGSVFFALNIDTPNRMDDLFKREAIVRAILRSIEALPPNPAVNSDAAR
AmpC-PA (Class C) β-lactamase, sequence (P24735 27-397): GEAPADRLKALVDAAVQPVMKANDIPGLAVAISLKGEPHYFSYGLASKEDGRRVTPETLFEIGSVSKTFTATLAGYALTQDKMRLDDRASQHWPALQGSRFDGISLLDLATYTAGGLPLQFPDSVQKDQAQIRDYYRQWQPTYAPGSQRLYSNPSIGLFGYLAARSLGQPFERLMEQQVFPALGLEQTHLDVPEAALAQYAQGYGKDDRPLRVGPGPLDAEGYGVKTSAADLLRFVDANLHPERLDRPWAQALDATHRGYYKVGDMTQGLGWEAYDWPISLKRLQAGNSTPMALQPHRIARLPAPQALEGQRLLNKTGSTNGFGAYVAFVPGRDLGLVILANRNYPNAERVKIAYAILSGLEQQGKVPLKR
KPC (Class A) β-lactamase, sequence (Q9F663 25-293 limits assumed): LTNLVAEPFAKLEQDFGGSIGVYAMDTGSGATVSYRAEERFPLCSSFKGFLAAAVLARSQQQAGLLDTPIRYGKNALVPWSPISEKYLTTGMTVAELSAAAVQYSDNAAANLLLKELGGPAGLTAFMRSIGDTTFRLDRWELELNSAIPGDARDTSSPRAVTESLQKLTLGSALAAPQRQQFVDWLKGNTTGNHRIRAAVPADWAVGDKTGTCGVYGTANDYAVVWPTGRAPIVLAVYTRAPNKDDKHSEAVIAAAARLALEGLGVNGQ
OXA-9 (Class D) β-lactamase, sequence (P0A3M3 25-274): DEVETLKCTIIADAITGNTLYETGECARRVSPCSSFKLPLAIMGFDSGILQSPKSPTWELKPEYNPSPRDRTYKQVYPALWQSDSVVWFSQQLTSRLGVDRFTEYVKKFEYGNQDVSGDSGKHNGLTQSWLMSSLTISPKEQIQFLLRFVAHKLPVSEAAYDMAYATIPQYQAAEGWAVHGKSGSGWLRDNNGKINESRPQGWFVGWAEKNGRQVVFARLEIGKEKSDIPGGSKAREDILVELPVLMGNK
TEM-1 (Class A) β-lactamase, sequence (P62593 24-286 limits assumed): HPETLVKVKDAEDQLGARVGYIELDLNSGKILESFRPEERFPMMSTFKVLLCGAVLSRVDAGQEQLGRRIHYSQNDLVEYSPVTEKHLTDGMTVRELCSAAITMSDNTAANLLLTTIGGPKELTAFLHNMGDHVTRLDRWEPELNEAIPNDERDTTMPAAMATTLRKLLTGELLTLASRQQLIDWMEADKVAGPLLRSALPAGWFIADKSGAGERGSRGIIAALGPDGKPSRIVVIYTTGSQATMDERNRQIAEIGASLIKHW

What is called IC50 is the midpoint of a concentration-inhibition curve. For `N=C(N)NOCCONC(=O)[C@@H]1CC[C@@H]2CN1C(=O)N2OS(=O)(=O)O` [Compound 1], the IC50 in test [1] turned out to be 0.0202 µM; in test [2] it was 0.0986 µM; in test [3], 0.0319 µM; in test [4], 0.0431 µM; in test [5] it was 1.55 µM; in test [6] it was 5 µM. For the same compound, the IC50 in test [7] was 0.0389 µM.

The values above are taken from patent US10738051B2, “β-lactamase inhibitors” (priority 2016, dated 2020).
